Data on 15 compounds can be found in ChEMBL document CHEMBL1201862, “PubChem BioAssay data set” (2004).

Experiment [1] can be described thus: HepG2 cell cytotoxicity, dose response, cytotoxicity control, ATP luminescence, cherry-pick, activator set 2 (AID 1053143). It is filed as functional, cell-based.
The nature of experiment [2]: HEK293 cell cytotoxicity, dose response, cytotoxicity control, plate reader, cherry-picked samples (AID 743446). It is filed as functional, cell-based.
A short description of experiment [3]: HepG2 cell cytotoxicity, dose response, cytotoxicity control, plate reader, cherry-pick, antagonist series (AID 743416). It is filed as functional, cell-based.
The nature of experiment [4]: A549 cell cytotoxicity, dose response, cytotoxicity control, plate reader, cherry-pick, antagonist series (AID 743412). It is filed as functional, cell-based.
Experiment [5] in a line: MC4R antagonists, dose response, counter-screen for LGR2 antagonist project, cell-based, plate reader, cherry pick (AID 743444).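 Also: transfected HEK 293 cells stimulated with alpha-MSH peptide; potency of inhibitors of the alpha-MSH evoked signal.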 It is filed as functional. In general terms: Counterscreens check selectivity or assay interference.
Experiment [6] in a line: LGR2 antagonists, dose response, cell-based, HEK293, CRE-luciferase reporter, cherry pick, set 2 (AID 743343).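 Also: transfected cells were stimulated with diluted bursicon conditioned medium after compound addition.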 It is filed as functional. (In general: A reporter such as luciferase makes a cellular process visible.)
The target in experiment [7] is Kallikrein-7 (Homo sapiens, UniProt P49862). As to the kind of experiment: Fluorescence Intensity-based biochemical primary high throughput dose response assay to identify activators of kallikrein-7 (K7) zymogen.
Experiment [8] deals with NAD-dependent protein deacylase sirtuin-5, mitochondrial (Homo sapiens, UniProt Q9NXA8). Nature of the experiment: SIRT5 desuccinylase inhibitors, dose response, biochemical, fluorescence imaging, cherry-pick, set 5 (AID 720591).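 Also: desuccinylation of succinyl peptide AMC substrate read as fluorescence after trypsin release; potency of inhibitors that lower fluorescence and may act on trypsin instead.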
The nature of experiment [9]: cells.
Experiment [10] has as its target Major prion protein (Homo sapiens, UniProt P04156). It is filed as functional, cell-based.
The nature of experiment [11]: HEK293T cytotoxicity, dose response, cytotoxicity control for miR-122 modulator project, cell-based, activator set, cherry-pick (AID 720690).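 Also: HEK293T human cells scored for general mammalian cytotoxicity.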 It is filed as functional.
Experiment [12] is described as follows: HEK293T cytotoxicity, dose response, cytotoxicity control for miR-122 modulator project, cell-based, inhibitor set, cherry-pick, set 2 (AID 720697). It is filed as functional.
Experiment [13] is described as follows: IGROV1 ovarian cancer cell cytotoxicity, dose response, PAX8 inhibitor project, plate reader, dry powder samples (AID 743043). It is filed as functional, cell-based. As to conditions: IGROV-1.
Experiment [14] can be described thus: cytotoxicity in OVCAR8 ovarian cancer cells, dose response, PAX8 project, cell-based, plate reader, dry powder samples (AID 743197). It is filed as functional. The conditions noted are these: OVCAR-8.
Experiment [15] can be described thus: miR-122 activators in hepatoma reporter cells, dose response, cell-based, Huh7 psiCHECK-miR122, Renilla luciferase, cherry-picked (AID 651956).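 Also: huh7 hepatoma cells stably carrying a psiCHECK-2 miR-122 sensor plasmid; renilla luciferase signal reporting endogenous miR-122 activity after 48 h compound exposure.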 It is filed as functional.
Experiment [16] is described as follows: NIH:OVCAR-3 ovarian cancer cell cytotoxicity, dose response, PAX8 inhibitor project, plate reader, dry powder samples (AID 743044). It is filed as functional, cell-based.
Experiment [17] deals with Paired box protein Pax-8 (Homo sapiens, UniProt Q06710). As to the kind of experiment: inhibitors of PAX8-driven TPO luciferase reporter, dose response, RMG-I cells, cherry-pick (AID 687027).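 Also: luciferase reporter driven by Pax8 target thyroperoxidase promoter measured by SteadyGlo luminescence.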 It is filed as functional, cell-based.
A short description of experiment [18]: A2780 ovarian cancer cell cytotoxicity, dose response, cytotoxicity control, plate reader, dry powder samples (AID 743046). It is filed as functional, cell-based.
Experiment [19] is described as follows: HEK293 Cytotoxicity Assay Measured in Cell-Based System Using Plate Reader - 7071-01_Inhibitor_Dose_CherryPick_Activity_Set2. It is filed as functional.
Experiment [20] concerns HEK293. Nature of the experiment: HEK293T cell cytotoxicity, dose response, cytotoxicity control, ATP luminescence, cherry-pick samples (AID 687005).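 Also: cells exposed to compound for 48 hours.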 The conditions noted are these: Homo sapiens. It is filed as functional, cell-based.
Experiment [21] is described as follows: cytotoxicity dependent on PAX8, dose response, cell-based, plate reader, dry powder (AID 743049). It is filed as functional.
Experiment [22] is described as follows: cytotoxicity in COV362 ovarian cancer cells, dose response, cytotoxicity control for PAX8 inhibitor project, cell-based, plate reader, dry powder, SA12 (AID 743144). It is filed as functional.
Experiment [23] is described as follows: PAX5 activity inhibitors, dose response, selectivity assay for PAX8 inhibitor project, cell-based, plate reader, dry powder samples (AID 743047).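 Also: HEK293 cells carrying a Pax5 driven CD19 promoter luciferase reporter; potency of inhibitors that lower reporter luminescence.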 It is filed as functional.
Experiment [24] can be described thus: cytotoxicity in OVCAR4 cells, dose response, cytotoxicity control for PAX8 inhibitor project, cell-based, plate reader, dry powder, SA11 (AID 743150). It is filed as functional. The conditions noted are these: OVCAR-4.
The nature of experiment [25]: cytotoxicity in OV-90 ovarian cancer cells, dose response, PAX8 inhibitor project, cell-based, plate reader, dry powder, SA8 (AID 743149). It is filed as functional.
The nature of experiment [26]: PAX2 cell-based inhibition, dose response, selectivity assay for PAX8 inhibitor project, plate reader, dry powder samples (AID 743048).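 Also: HEK293 cells carrying a WT1 promoter luciferase reporter driven by expressed Pax2; potency is for inhibition of Pax2 driven reporter signal.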 It is filed as functional.
Experiment [27] can be described thus: cytotoxicity in COV434 cells, dose response, cytotoxicity control for PAX8 inhibitor project, cell-based, plate reader, dry powder, SA7 (AID 743145). It is filed as functional.
The target in experiment [28] is Potassium channel subfamily K member 3 (Homo sapiens, UniProt O14649). As to the kind of experiment: TASK1 (KCNK3) potassium channel inhibitors, SAR follow-up, CHO cells, FluxOR thallium flux (AID 652212). It is filed as functional.
Experiment [29] deals with Potassium channel subfamily K member 9 (Homo sapiens, UniProt Q9NPC2). Nature of the experiment: TASK3 (KCNK9) channel inhibitors, thallium flux, SAR follow-up, selectivity assay for TASK1 inhibitor project, cell-based, FluxOR thallium flux, concentration-response (AID 652211).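 Also: potency is for inhibitors of the channel.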 It is filed as functional.
The target in experiment [30] is G-protein coupled receptor 183 (Homo sapiens, UniProt P32249). Nature of the experiment: SAR confirmation of small molecule antagonists of the EBI2 receptor via a luminescent beta-arrestin assa. It is filed as functional.
Experiment [31] concerns the target T1, Protein skinhead-1 (Caenorhabditis elegans, UniProt P34707).
T1 sequence (P34707 whole entry): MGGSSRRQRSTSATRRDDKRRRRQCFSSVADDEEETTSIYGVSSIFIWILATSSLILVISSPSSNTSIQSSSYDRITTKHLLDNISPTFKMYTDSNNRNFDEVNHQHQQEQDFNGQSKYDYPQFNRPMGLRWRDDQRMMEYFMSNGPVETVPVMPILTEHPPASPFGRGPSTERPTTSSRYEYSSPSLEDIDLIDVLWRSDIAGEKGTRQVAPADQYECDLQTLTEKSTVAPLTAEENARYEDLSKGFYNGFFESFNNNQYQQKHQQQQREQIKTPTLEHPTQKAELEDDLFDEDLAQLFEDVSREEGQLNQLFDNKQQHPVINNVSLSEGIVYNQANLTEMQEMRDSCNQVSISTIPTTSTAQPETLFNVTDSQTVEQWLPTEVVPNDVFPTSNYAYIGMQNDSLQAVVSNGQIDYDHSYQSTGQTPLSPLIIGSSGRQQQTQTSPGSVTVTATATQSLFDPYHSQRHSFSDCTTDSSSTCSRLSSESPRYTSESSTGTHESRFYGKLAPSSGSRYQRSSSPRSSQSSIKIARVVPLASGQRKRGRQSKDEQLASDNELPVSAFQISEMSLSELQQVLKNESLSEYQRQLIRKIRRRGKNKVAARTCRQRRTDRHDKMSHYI
It is filed as functional.

Experiment [32] in a line: cells. This is another data set of the same source.
Experiment [33] can be described thus: HEp-2 cell cytotoxicity, dose response, cytotoxicity control for RSV inhibitor project, HTS (AID 2410). It is filed as functional. As to conditions: human respiratory syncytial virus.
Experiment [34] deals with Streptococcus. As to the kind of experiment: Group A Streptococcus viability loss, dose response, counter-screen for streptokinase expression inhibitor project, luminescence, BacTiterGlo (AID 1915).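 Also: potency for reduction of bacterial viability or growth.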 It is filed as functional, organism-based.
The subject of experiment [35] is Streptococcus sp. 'group A'. Nature of the experiment: growth inhibition of control SK(-) GAS strain, dose response, counter-screen for streptokinase expression inhibitor project, luminescence, kanamycin, BacTiterGlo, confirmation (AID 1900). It is filed as functional, organism-based.
Experiment [36] concerns the target T2, Streptokinase A (Streptococcus pyogenes serotype M1, UniProt P10520).
T2 sequence (P10520 whole entry): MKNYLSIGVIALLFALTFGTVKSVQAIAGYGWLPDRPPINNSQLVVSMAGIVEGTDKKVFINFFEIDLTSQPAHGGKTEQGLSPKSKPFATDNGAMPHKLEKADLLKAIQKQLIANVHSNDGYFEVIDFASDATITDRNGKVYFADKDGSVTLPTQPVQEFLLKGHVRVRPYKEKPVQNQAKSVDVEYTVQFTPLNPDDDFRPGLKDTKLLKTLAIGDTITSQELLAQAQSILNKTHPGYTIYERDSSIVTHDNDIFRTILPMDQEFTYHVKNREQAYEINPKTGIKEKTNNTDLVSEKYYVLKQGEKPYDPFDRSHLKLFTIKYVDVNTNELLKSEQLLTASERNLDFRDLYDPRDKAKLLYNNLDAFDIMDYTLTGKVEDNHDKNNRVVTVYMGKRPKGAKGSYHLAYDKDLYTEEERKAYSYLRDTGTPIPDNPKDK
Nature of the experiment: S. pyogenes streptokinase expression inhibitors, potency, dose response, plasminogen activation absorbance, OD405 (AID 1914).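 Also: secreted streptokinase activity via plasminogen activation per viability signal from cell pellet.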 It is filed as functional, Streptococcus pyogenes M1 GAS.

Calls of active or inactive are those of the source.

Take `O=C(Nc1ccc2c(c1)CCC2)Nc1ccccc1Cl`: the AC50 in [1] was 26 µM (active).

As to `NC(=O)c1ccsc1NC(=O)c1ccc(N2CCCC2=O)cc1`, the AC50 in experiment [2] was > 52 µM (inactive); in [3], > 52 µM (inactive); in experiment [4], 50.9 µM (active); in [5], 16.5 µM (active); in experiment [6], 10.5 µM (active).

As for `CN1C(=O)c2ccccc2N(C)C1c1ccc(F)cc1` (stereo not given), in experiment [7], the EC50 is > 69.5 µM (inactive).

On to `O=C(Cn1cnc(S(=O)(=O)N2CCCC2)c1)Nc1cccc(Br)c1`, for which, in [8], the AC50 is > 30 µM (inactive).

Take `Cc1nnc(S)c2nn(-c3ccccc3F)c(C)c12`: the IC50 in experiment [9] is > 138 µM (inactive); in [10], 8.71 µM (active).

For `CCOC(=O)c1c(-c2ccccc2)oc2cc(Br)c(O)cc12`, the IC50 in [9] is 60 µM (inactive); in experiment [10], 1.44 µM (active).

`C[C@H]1CCCCO[C@H](CN(C)Cc2ccccc2)[C@@H](C)CN([C@@H](C)CO)C(=O)c2cc(NC(=O)Nc3ccc(C(F)(F)F)cc3)ccc2O1`: the AC50 in experiment [11] is 11.3 µM (active); in experiment [12], 8.18 µM (active); in [13], 23.4 µM (active); in experiment [14], 21.4 µM (active); in experiment [15], 6.32 µM (active); in experiment [16] it was 22.8 µM (active).

As for `CCCCCCCCN1C(=O)[C@H](CC(=O)NCCCN2CCCC2=O)C[C@@]2(C(=O)OC)CC(C)(C)CC=C12`, the AC50 in experiment [8] is > 30 µM (inactive).

On to `C[C@H](CO)N1C[C@H](C)[C@H](CN(C)Cc2ccc(C(F)(F)F)cc2)OCCCC[C@H](C)Oc2ccc(NC(=O)Nc3ccccc3)cc2C1=O`, for which the AC50 in experiment [17] is 8.44 µM (active); in experiment [14] it was 30.7 µM (active); in [16], 27.6 µM (active); in experiment [18] it was 11.8 µM (active).

Regarding `CCS(=O)(=O)N1CCCCN2[C@H](C1)[C@@H](c1ccc(-c3ccc(C#N)cc3)cc1)[C@@H]2CO`, the AC50 in [19] and in experiment [20] was 18.6 µM (active) in each case.

In the case of `COc1ccc(CN(C)C[C@H]2OCCCC[C@H](C)Oc3ccc(NC(=O)Nc4ccc(C(F)(F)F)cc4)cc3C(=O)N([C@@H](C)CO)C[C@H]2C)cc1`, the AC50 in experiment [17] was 5.98 µM (active); in [21], 14.4 µM (active); in experiment [22] it was > 70 µM (inactive); in experiment [13] it was 25.1 µM (active); in experiment [23] it was > 70 µM (inactive); in experiment [24], 40.5 µM (active). Besides, the concentration at half-maximal activity (AC50) in [14] is 22 µM (active); in [25], 33.7 µM (active); in experiment [16], 22.4 µM (active); in [26], 31.6 µM (active); in [27], 34.4 µM (active).

Take `CCOc1ccccc1NC(=O)c1cccc(NC(=O)c2ccccc2Cl)c1`: the IC50 in experiment [28] is 0.084 µM (active); in experiment [29], 2.63 µM (active).

As for `O=C(/C=C/c1ccc(F)cc1)N1CCN(S(=O)(=O)Cc2ccccc2)CC1`, the IC50 in [30] is 0.0287 µM (active).

`CC(C)(C)c1ccc(S(=O)(=O)N2CCN(C(=O)/C=C/c3ccc(Cl)c(Cl)c3)CC2)cc1`: the IC50 in [30] was 0.0468 µM (active).

As to `Cc1ccc2nc(-c3ccc(N)cc3)sc2c1`, the IC50 was > 100 µM (inactive) in experiment [31] and 29.7 µM (active) in experiment [32]. Moreover, the AC50 in experiment [3] was 50.6 µM (active); in experiment [4], 51.3 µM (active); in [5], 1.55 µM (active); in experiment [6], 1.88 µM (active). Further, the CC50 in experiment [33] was > 50 µM (active). The EC50 in experiment [34], in experiment [35] and in [36] was > 150 µM (not active) in each case.

By AC50 is commonly meant the midpoint of the concentration-response curve, whichever way the signal moves. For orientation: EC50 means the concentration giving half of the maximal effect. A word on the IC50: it is the midpoint of a concentration-inhibition curve. What is called CC50 is the concentration at which the toxic effect on the cells reaches its halfway point.
